Laboratory results reported in ChEMBL document CHEMBL1201862, “PubChem BioAssay data set” (2004).
Calls of active or inactive are those of the source.

Legend:
[1] = biological target: T1, RNA-binding protein pos-1 (Caenorhabditis elegans, UniProt G5EF15); assay: inhibitors of POS-1/mex-3 RNA binding, dose response, biochemical, fluorescence polarization (AID 1964);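 also: purified POS-1 fused to maltose binding protein made in E. coli; potency of compounds blocking POS-1 binding to fluorescent RNA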
T1 sequence (G5EF15 whole entry): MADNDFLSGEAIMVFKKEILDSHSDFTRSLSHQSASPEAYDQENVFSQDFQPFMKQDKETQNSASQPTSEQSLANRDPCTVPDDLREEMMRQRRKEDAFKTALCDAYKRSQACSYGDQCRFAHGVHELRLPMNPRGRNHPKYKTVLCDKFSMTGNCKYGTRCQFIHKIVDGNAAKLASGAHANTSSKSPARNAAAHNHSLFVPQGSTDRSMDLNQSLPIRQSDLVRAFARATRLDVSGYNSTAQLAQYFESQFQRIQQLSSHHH

[2] = biological target: BDNF/NT-3 growth factors receptor (Homo sapiens, UniProt Q16620); assay type: functional;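 also: NTRK2 measured as one member of a broad kinome-wide kinase profiling panel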
Chain of BDNF/NT-3 growth factors receptor (Q16620 whole entry): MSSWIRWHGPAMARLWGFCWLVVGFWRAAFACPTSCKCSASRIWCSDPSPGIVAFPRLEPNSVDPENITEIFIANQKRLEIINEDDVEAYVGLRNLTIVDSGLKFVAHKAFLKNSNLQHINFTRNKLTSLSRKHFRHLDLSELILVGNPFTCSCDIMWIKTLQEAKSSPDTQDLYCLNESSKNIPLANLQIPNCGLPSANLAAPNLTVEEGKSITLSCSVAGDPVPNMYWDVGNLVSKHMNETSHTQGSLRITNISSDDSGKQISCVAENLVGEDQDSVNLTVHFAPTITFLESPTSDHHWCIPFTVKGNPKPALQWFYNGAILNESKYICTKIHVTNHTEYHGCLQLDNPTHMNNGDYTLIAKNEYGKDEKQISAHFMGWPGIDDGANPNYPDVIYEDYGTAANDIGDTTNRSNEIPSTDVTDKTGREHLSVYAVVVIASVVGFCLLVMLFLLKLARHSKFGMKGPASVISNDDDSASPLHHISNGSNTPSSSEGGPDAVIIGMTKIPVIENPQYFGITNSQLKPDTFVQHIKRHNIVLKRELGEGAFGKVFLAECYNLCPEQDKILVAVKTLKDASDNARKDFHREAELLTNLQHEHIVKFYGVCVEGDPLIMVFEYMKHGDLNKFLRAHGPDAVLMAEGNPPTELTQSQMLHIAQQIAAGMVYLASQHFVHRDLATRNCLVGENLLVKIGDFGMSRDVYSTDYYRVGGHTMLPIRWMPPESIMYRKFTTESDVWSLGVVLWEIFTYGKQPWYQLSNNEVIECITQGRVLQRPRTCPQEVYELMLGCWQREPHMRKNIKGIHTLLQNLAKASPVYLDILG

[3] = biological target: Serine/threonine-protein kinase PLK4 (Homo sapiens, UniProt O00444); assay type: functional;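 also: PLK4 measured as one member of a kinome-wide kinase profiling panel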
[4] = biological target: Tyrosine-protein kinase Fyn (Homo sapiens, UniProt P06241); assay type: functional
[5] = biological target: Serine/threonine-protein kinase MRCK alpha (Homo sapiens, UniProt Q5VT25); assay type: functional
[6] = biological target: Serine/threonine-protein kinase Nek2 (Homo sapiens, UniProt P51955); assay type: functional
[7] = biological target: Tyrosine-protein kinase Srms (Homo sapiens, UniProt Q9H3Y6); assay type: functional;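 also: SRMS measured as one member of a kinome-wide kinase profiling panel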
[8] = biological target: MAP/microtubule affinity-regulating kinase 4 (Homo sapiens, UniProt Q96L34); assay: Navigating the Kinome. Panel member name: MARK4; assay type: functional
[9] = biological target: Insulin-like growth factor 1 receptor (Homo sapiens, UniProt P08069); assay: Navigating the Kinome. Panel member name: IGF1R; assay type: functional
Activated CDC42 kinase 1 = Activated CDC42 kinase 1 (Homo sapiens, UniProt Q07912); assay: Navigating the Kinome. Panel member name: ACK1; assay type: functional
Chain of Activated CDC42 kinase 1 (Q07912 whole entry): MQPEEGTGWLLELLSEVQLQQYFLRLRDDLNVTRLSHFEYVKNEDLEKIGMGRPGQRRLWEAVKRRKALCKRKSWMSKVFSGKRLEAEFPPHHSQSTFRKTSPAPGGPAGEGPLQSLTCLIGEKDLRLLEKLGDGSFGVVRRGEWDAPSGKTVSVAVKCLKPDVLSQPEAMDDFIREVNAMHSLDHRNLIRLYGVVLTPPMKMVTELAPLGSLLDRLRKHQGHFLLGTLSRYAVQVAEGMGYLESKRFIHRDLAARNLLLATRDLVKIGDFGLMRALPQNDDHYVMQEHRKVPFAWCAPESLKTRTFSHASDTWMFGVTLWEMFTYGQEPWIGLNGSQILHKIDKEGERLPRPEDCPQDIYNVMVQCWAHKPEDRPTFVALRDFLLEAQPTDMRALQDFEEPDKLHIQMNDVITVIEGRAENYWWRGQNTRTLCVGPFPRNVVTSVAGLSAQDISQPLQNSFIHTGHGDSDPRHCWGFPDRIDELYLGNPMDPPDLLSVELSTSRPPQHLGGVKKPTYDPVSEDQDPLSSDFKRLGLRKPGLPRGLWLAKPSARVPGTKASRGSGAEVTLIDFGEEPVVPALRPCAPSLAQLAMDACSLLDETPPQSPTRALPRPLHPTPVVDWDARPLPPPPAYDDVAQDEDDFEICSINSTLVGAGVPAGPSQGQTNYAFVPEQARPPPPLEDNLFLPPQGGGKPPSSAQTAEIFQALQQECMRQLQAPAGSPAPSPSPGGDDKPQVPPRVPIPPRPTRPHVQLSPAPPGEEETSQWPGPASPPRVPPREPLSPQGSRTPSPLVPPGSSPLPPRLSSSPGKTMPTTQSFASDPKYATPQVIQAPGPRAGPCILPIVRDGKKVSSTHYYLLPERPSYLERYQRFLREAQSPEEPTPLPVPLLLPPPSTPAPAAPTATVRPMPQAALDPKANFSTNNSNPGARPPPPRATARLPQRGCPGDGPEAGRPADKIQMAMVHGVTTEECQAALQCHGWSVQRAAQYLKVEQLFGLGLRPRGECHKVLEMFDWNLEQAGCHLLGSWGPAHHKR

[10] = biological target: Tyrosine-protein kinase JAK3 (Homo sapiens, UniProt P52333); assay type: functional
Chain of Tyrosine-protein kinase JAK3 (P52333 whole entry): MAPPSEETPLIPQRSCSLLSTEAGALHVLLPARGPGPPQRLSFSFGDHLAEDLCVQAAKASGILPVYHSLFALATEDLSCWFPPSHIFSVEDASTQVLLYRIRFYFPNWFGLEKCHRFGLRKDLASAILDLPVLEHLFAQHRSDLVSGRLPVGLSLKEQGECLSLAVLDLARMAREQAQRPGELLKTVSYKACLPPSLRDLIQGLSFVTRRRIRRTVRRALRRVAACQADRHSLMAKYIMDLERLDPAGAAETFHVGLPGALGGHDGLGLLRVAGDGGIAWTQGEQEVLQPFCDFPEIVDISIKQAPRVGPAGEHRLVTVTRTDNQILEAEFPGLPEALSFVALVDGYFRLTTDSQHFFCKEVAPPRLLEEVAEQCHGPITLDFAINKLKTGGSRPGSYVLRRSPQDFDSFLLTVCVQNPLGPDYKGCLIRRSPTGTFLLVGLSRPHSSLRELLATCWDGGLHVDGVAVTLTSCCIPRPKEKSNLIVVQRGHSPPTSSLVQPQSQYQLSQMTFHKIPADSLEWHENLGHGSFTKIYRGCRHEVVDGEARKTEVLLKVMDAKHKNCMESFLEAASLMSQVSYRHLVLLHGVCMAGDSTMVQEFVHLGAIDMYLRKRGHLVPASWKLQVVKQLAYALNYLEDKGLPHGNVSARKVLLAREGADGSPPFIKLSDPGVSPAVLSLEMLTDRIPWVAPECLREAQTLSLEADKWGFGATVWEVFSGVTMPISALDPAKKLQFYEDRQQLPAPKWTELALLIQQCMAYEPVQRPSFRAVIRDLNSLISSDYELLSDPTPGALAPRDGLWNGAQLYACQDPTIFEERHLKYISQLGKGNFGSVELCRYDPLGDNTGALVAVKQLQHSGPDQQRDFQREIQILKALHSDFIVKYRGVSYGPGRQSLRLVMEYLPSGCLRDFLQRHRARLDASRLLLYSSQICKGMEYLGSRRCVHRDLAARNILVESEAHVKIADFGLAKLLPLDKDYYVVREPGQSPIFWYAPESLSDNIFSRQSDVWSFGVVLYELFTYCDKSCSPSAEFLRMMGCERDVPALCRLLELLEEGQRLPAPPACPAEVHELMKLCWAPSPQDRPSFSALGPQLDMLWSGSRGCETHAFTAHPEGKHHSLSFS

[11] = biological target: Mitogen-activated protein kinase 8 (Homo sapiens, UniProt P45983); assay type: functional;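 also: value comes from one member of a kinome-wide kinase profiling panel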
Chain of Mitogen-activated protein kinase 8 (P45983 whole entry): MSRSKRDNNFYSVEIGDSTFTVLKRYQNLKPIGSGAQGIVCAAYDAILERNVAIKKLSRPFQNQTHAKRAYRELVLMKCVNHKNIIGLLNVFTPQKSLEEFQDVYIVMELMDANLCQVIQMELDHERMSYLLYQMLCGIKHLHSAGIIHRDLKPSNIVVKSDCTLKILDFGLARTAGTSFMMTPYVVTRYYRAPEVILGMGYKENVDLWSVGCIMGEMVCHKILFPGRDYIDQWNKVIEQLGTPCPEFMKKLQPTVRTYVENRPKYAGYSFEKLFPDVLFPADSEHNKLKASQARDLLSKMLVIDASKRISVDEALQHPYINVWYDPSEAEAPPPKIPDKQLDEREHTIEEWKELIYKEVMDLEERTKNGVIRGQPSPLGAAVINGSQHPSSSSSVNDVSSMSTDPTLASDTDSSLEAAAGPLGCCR

[12] = biological target: Protein kinase C theta type (Homo sapiens, UniProt Q04759); assay: Navigating the Kinome. Panel member name: PRKCQ; assay type: functional
[13] = biological target: cAMP-dependent protein kinase catalytic subunit alpha (Homo sapiens, UniProt P17612); assay type: functional
[14] = biological target: Dual specificity protein kinase CLK2 (Homo sapiens, UniProt P49760); assay type: functional
Activin receptor type-1 = Activin receptor type-1 (Homo sapiens, UniProt Q04771); assay: Navigating the Kinome. Panel member name: ACVR1; assay type: functional
[15] = biological target: Cyclin-dependent kinase 9 (Homo sapiens, UniProt P50750); assay type: functional;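 also: value from the CDK9 entry of a kinome-spanning kinase panel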
[16] = biological target: Rho-associated protein kinase 1 (Homo sapiens, UniProt Q13464); assay type: functional;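 also: measured within a broad kinome-wide panel profiling many kinases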
Chain of Rho-associated protein kinase 1 (Q13464 whole entry): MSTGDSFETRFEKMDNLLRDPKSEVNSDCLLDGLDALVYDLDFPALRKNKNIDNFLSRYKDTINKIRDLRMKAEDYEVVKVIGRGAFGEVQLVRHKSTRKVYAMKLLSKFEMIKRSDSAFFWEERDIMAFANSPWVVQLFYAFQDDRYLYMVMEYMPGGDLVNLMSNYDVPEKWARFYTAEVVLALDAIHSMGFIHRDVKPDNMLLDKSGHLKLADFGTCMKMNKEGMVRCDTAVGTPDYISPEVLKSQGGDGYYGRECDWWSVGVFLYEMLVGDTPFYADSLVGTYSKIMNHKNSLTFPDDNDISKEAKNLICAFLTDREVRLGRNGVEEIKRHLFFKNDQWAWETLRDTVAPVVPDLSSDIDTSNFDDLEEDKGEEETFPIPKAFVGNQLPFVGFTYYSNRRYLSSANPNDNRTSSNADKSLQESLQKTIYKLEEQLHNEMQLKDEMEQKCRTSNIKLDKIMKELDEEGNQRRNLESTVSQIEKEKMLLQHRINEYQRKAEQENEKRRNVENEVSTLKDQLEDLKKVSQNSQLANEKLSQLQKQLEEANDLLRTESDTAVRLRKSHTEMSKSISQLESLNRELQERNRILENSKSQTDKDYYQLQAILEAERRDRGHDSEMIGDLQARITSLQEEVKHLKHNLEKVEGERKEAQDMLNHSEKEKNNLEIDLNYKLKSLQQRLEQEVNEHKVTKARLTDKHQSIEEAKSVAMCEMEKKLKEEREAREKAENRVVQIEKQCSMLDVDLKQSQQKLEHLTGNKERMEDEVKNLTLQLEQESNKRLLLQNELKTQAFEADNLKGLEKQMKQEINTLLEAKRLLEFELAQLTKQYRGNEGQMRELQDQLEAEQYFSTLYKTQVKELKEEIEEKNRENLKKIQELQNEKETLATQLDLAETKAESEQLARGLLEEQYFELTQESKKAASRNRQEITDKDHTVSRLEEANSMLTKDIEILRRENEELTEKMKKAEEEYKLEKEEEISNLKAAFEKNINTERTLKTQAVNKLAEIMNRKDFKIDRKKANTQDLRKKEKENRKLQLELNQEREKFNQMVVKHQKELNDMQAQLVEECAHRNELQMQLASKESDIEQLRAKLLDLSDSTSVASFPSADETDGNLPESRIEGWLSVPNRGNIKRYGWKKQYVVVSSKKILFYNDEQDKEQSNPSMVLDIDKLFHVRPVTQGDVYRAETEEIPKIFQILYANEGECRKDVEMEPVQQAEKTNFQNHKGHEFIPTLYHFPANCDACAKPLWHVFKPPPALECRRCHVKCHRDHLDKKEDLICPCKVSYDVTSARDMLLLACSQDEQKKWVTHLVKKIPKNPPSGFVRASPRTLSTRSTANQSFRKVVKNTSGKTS

[17] = biological target: Proto-oncogene tyrosine-protein kinase receptor Ret (Homo sapiens, UniProt P07949); assay type: functional;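 also: measured within a kinome-wide profiling panel, RET as the panel member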
[18] = biological target: Casein kinase I isoform alpha (Homo sapiens, UniProt P48729); assay type: functional
Chain of Casein kinase I isoform alpha (P48729 whole entry, canonical isoform): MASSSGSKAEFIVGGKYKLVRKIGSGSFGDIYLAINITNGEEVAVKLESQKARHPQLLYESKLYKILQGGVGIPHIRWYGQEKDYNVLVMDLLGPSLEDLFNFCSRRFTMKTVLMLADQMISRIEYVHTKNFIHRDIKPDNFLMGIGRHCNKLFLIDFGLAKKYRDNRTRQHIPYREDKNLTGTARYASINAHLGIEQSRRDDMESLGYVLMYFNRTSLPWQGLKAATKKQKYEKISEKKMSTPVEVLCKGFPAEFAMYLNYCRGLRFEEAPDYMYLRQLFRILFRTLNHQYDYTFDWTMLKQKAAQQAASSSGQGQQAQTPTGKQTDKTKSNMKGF

[19] = biological target: Macrophage colony-stimulating factor 1 receptor (Homo sapiens, UniProt P07333); assay type: functional;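 also: value comes from the Navigating the Kinome screening panel, CSF1R member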
[20] = biological target: T2, Apoptotic protease-activating factor 1 (Homo sapiens, UniProt O14727); assay type: functional
T2 sequence (O14727 whole entry): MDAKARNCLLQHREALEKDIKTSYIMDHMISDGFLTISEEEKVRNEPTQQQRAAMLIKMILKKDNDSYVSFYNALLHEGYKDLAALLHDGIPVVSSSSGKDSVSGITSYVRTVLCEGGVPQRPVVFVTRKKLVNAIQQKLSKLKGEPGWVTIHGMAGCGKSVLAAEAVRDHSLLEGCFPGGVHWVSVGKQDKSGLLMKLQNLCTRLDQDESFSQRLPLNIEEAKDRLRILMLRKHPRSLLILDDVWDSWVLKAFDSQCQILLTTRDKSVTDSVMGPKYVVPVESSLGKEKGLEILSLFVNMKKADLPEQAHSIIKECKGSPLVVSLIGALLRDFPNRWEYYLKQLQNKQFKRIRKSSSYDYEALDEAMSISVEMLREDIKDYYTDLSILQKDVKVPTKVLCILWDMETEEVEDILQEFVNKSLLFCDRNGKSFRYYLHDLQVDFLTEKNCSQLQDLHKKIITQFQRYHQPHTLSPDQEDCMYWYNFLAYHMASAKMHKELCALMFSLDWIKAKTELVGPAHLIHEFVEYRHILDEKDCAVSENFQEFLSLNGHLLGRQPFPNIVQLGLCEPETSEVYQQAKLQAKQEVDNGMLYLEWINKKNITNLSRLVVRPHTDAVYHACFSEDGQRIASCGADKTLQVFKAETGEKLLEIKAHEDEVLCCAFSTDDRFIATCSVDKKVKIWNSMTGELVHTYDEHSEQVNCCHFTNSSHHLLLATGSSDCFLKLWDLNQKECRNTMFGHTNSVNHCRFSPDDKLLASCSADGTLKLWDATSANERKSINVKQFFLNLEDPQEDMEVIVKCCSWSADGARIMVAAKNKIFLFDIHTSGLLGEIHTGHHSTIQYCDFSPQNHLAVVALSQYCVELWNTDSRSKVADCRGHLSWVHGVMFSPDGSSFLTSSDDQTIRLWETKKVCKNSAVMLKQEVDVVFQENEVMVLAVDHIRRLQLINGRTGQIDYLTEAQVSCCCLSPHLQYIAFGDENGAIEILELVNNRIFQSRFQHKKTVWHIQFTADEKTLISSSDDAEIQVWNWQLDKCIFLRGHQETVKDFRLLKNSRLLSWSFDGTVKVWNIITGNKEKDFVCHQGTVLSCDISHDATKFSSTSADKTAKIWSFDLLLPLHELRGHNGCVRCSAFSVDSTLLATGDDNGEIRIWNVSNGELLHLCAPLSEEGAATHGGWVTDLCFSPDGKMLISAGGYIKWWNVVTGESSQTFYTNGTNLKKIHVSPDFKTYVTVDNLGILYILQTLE

Vero = Vero cell cytotoxicity, cytotoxicity control for flavivirus capping enzyme inhibitors (AID 588742); assay type: functional; details: Chlorocebus sabaeus

COc1cccc2c1NC(C(=O)O)C1CC=CC21 (stereo not given)
EC50 [1]: 19.5 µM (inconclusive)

Cc1ccc(F)c(NC(=O)Nc2ccc(-c3cccc4[nH]nc(N)c34)cc2)c1 [LINIFANIB]
Ki [2]: 0.631 µM (active) | Ki [3]: 0.631 µM (active) | Ki [4]: > 6.31 µM (inactive) | Ki [5]: > 10 µM (inactive) | Ki [6]: > 3.16 µM (inactive) | Ki [7]: 1.58 µM (active) | Ki [8]: > 5.01 µM (inactive) | Ki [9]: > 2.51 µM (inactive) | Ki (Activated CDC42 kinase 1): > 3.98 µM (inactive) | Ki [10]: > 5.01 µM (inactive)

COc1c(-c2nc3ccccc3[nH]2)c(O)cc2oc(C)cc(=O)c12
Ki [11]: 0.631 µM (active) | Ki [12]: 0.398 µM (active) | Ki [2]: 3.16 µM (active) | Ki [4]: 2 µM (active) | Ki [13]: 0.501 µM (active) | Ki [14]: > 3.98 µM (inactive) | Ki [6]: 0.316 µM (active) | Ki (Activin receptor type-1): 1.26 µM (active) | Ki [15]: 0.158 µM (active) | Ki [16]: 3.16 µM (active) | Ki [17]: 1.26 µM (active) | Ki [9]: > 2.51 µM (inactive) | Ki (Activated CDC42 kinase 1): > 3.98 µM (inactive) | Ki [18]: 1.58 µM (active) | Ki [19]: 2 µM (active) | Ki [10]: 3.98 µM (active)

CCc1ccc(S(=O)(=O)/N=C2\C=C(Nc3ccc(O)cc3)C(=O)c3ccccc32)cc1
IC50 [20]: 1.97 µM (active)

COC(=O)c1c(N)nc2ccccn12
Ki [11]: 7.94 µM (active) | Ki [12]: > 100 µM (inactive) | Ki [13]: 10 µM (active) | Ki [14]: 63.1 µM (active) | Ki (Activin receptor type-1): 50.1 µM (active) | Ki [15]: 39.8 µM (active) | Ki [16]: 39.8 µM (active) | Ki [17]: 63.1 µM (active) | Ki [18]: 6.31 µM (active) | Ki [19]: 79.4 µM (active)

CCCNC(=O)c1c(N)n(CC2CCCO2)c2nc3ccccc3nc12 (stereo not given)
IC50 [20]: 58.6 µM (active)

O=C1/C(=C\c2cccc(O)c2O)SC(=S)N1Cc1ccccc1
CC50 (Vero): 16.1 µM (active)
